“And” between values parts separate entries of the source, which are not always exact repeats. Equal values may be shown once.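 Five concentrations, 48 hours, 96-well plates. GI50 is the concentration that inhibits growth by half. TGI: concentration producing complete growth inhibition.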
Columns and labels:
Assay in all cases: NCI tumour cell line growth inhibition, 48 h
[1] = tested on: HS 578T breast
[2] = tested on: DU-145 prostate
[3] = tested on: MCF7 breast
[4] = tested on: BT-549 breast
[5] = tested on: T-47D breast
[6] = tested on: MDA-N
[7] = tested on: DLD-1 colon
[8] = tested on: LXFL 529 NSCLC

Row | Structure (SMILES) | TGI [1] | TGI [2] | TGI [3] | TGI [4] | TGI [5] | TGI [6] [µM] | GI50 [1] [µM] | GI50 [2] [µM] | GI50 [3] [µM] | GI50 [4] [µM] | GI50 [5] [µM] | TGI [7] [µM] | TGI [8] [µM]
1 | O=C(O)c1c[nH]c2c(ccc3[nH]cc(C(=O)O)c(=O)c32)c1=O | > 100 µM | > 100 µM | > 100 µM | > 100 µM | > 100 µM | > 100 | – | – | – | – | – | – | –
2 | O=C(NCCCl)NCc1ccccc1 | > 100 µM | > 100 µM | > 100 µM | – | > 100 µM | > 100 | – | – | – | – | – | – | –
3 | CCN(CC)CC(O)c1cc(-c2ccc(Cl)cc2)nc2cc(Cl)ccc12 (configuration not stated) | 7.32 µM | 5.04 µM | 2.9 µM | 14.8 µM | 7.01 µM | – | 2.51 | 2.27 | 1.5 | 4.75 | 2.53 | – | –
4 | COc1cccc(/C=C2\CCc3ccccc3C2=O)c1 | 17.9 µM | 18.7 µM | 17.8 µM | 47.6 µM | 38.9 µM | – | 3.33 | 6.07 | 3.53 | 20 | 13.6 | – | –
5 | Clc1ccc(Nc2ncnc3c2sc2ncccc23)c(Cl)c1 | > 100 µM | > 100 µM | > 100 µM | > 100 µM | – | – | > 100 | 0.0276 | < 0.01 | 0.0243 | – | – | –
6 | C=C1CCC2(C(C)=O)COC1(C)O2 (configuration not stated) | – | – | – | – | – | – | – | – | – | – | – | > 100 | –
7 | CC(C)=Cc1cc(C(=O)NCCNC(=O)c2cc(C=C(C)C)nc(NC#N)n2)nc(NC#N)n1 | – | – | – | – | – | – | – | – | – | – | – | – | > 100
8 | COc1ccc(Nc2ncccc2C(=O)NCc2cn(Cc3cccc(Oc4ccccc4)c3)nn2)c(OC)c1 | > 100 µM | > 81.5 µM | > 100 µM | > 100 µM | > 100 µM | – | 9.52 | 3.52 | 0.653 | 2.99 | 39.4 | – | –
9 | O=C1C(Cl)C(c2ccc([N+](=O)[O-])cc2)N1n1cnc2ccccc2c1=O (configuration not stated) | – | – | – | – | – | – | – | – | – | – | – | > 100 | > 100
10 | CCC1OC(=O)CC(O)C(C)C(OC2OC(C)CC(N(C)C)C2O)C(CC=O)CC(C)C(=O)/C=C/C2(C)OC2C1C (configuration not stated) | > 100 µM | 61.2 µM | 25 µM | 31.8 µM | 48.6 µM | > 100 | – | – | – | – | – | – | –
11 | COc1ccc(/C=C/C(=O)c2ccccc2)cc1OC | 65 µM and > 100 µM | 24.4 µM and 26.4 µM | 11.8 µM and 13.4 µM | 37.5 µM and 35.3 µM | 48.7 µM and 60.8 µM | 15.3 | 42.3 | – | 3.3 | – | 18.4 | – | –
12 | O=c1sc(-c2nc3ccccc3[nH]2)c(/N=C/c2ccccc2)n1-c1ccccc1 | – | – | – | – | – | – | – | – | – | – | – | > 100 | > 100
13 | COc1ccc(OC)c(-c2cc(=O)c3cc4c(cc3[nH]2)OCO4)c1 | – | – | – | – | – | – | – | – | – | – | – | > 100 | 49.6
14 | Cc1cc2nc3c4cc([N+](=O)[O-])ccc4n(CCN(C)C)c3nc2cc1C | 5.87 µM | > 27.8 µM | – | 5.85 µM | > 42 µM | – | 1.39 | 0.71 | 0.36 | 2 | 0.549 | – | –
15 | COc1ccc2c(c1)C(=O)c1c-2c(OCCN2CCCCC2)nc2ccc(OC)cc12 | 22.8 µM | 2.19 µM | 2.05 µM | 23.3 µM | 25.8 µM | – | 4.5 | 0.519 | 0.275 | 8.26 | 3.44 | – | –
16 | COc1cc(/C=C2\CC3C4CCC5=CC(=O)CC[C@]5(C)C4CC[C@]3(C)C2=O)ccc1OCCN1CCCCC1 (some centres not stated) | 23 µM | 8.33 µM | 8.55 µM | 23.3 µM | 41.9 µM | – | 4.79 | 2.06 | 3.35 | 6.19 | 11.3 | – | –
17 | CCCCCCn1c2c(c3c(O)cccc31)C(=O)c1ccccc1-2 | 52.6 µM | 29.7 µM | 35.2 µM | 33.9 µM | > 100 µM | – | 24.2 | 15.7 | 18 | 16.4 | 41.4 | – | –
18 | c1cnc2nc3n(c2c1)CSC3 | – | – | – | – | – | – | – | – | – | – | – | > 100 | > 100
19 | O=C1C(=Cc2ccc([N+](=O)[O-])o2)C(=O)N(CCc2ccccc2)S(=O)(=O)N1CCc1ccccc1 | – | – | – | – | – | – | – | – | – | – | – | 34.1 | 30.6
20 | O=C(O)CCCc1cc2c(s1)-c1cccc3cccc-2c13 | – | – | – | – | – | – | – | – | – | – | – | > 100 | > 100
21 | Cn1c(=O)c(-c2c(Cl)cccc2Cl)cc2cnc(Nc3ccc(I)cc3)nc21 | 0.235 µM | 0.139 µM | > 100 µM | 0.445 µM | > 100 µM | – | < 0.01 | < 0.01 | 0.212 | 0.0389 | 0.229 | – | –
22 | Nc1nc(Cl)nc2c1ncn2C1OC(CO)C(O)C1O (configuration not stated) | > 100 µM | > 100 µM | > 100 µM | > 100 µM | > 100 µM | – | > 100 | 6.76 | 1.66 | 16.8 | > 100 | – | –
23 | NC(CSC1(c2ccc(Cl)cc2)c2ccccc2-c2ccccc21)C(=O)O (configuration not stated) | 45.6 µM | > 100 µM | 39 µM | 34.6 µM | > 100 µM | > 100 | – | – | – | – | – | – | –
24 | C=CCCCC(O)c1ccc(C(O)c2cnc3ccccc3c2)o1 (configuration not stated) | > 100 µM | > 100 µM | > 100 µM | 63.5 µM | > 100 µM | – | 22.3 | 40 | 26 | 19.7 | > 100 | – | –
25 | O=C1CCCCCCCCCCOC(=O)CCCCCCCCCCO1 | – | – | – | – | – | – | – | – | – | – | – | > 100 | > 100
26 | CC(=O)Nc1ccc(Cc2ccc3[nH]c(=O)cc(C)c3c2)cc1 | > 100 µM | > 100 µM | > 100 µM | > 100 µM | > 100 µM | > 100 | – | – | – | – | – | – | –
27 | C=C(C)C1CCC2(C(=O)O)CCC3(C)C(CCC4C5(C)CCC(O)C(C)(C)C5CCC43C)C12 (configuration not stated) | 55.7 µM | 27.1 µM | 47.7 µM | 10.9 µM | 35.5 µM | 54.9 | – | – | – | – | – | – | –
28 | CCOC(=O)CP(=S)(S)c1ccccc1 (configuration not stated) | – | – | – | – | – | – | – | – | – | – | – | > 100 | > 100
29 | COc1cc(OC)c(/C=C/C(=O)c2c(O)cc(OC)c(C3CCN(C)CC3)c2OC)c(OC)c1 | 4.29 µM | 3.25 µM | – | 2.73 µM | 3.25 µM | – | 1.81 | 1.75 | – | 1.43 | 1.76 | – | –

Source: PubChem BioAssay (NCI)
